Values joined by “and” are separate entries in the source; they are usually repeats but may differ in a detail not shown here. Identical values can stand only once.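 Five concentrations, 48 hours, 96-well plates. Abbreviation: GI50, concentration required for 50% inhibition of growth. TGI is the concentration that stops growth completely.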
How the values were obtained:
Assay in all cases: growth of human tumour cells (NCI), 48 h
[1] = test system: A549 NSCLC
[2] = test system: HCT-116 colon
[3] = test system: IGROV1 ovarian
[4] = test system: K-562 leukemia
[5] = test system: MCF7 breast
[6] = test system: MDA-MB-435
[7] = test system: NCI-H226 lung
[8] = test system: NCI/ADR-RES ovarian
[9] = test system: OVCAR-3 ovarian
[10] = test system: SN12C renal
[11] = test system: SNB-19 CNS
[12] = test system: SR leukemia
[13] = test system: UO-31 renal

Row | Compound | TGI [1] | TGI [2] | TGI [3] | TGI [4] | TGI [5] | TGI [6] [µM] | TGI [7] | TGI [8] [µM] | TGI [9] | TGI [10] | TGI [11] | TGI [12] [µM] | TGI [13] | GI50 [1] [µM] | GI50 [3] [µM] | GI50 [5] [µM] | GI50 [7] [µM] | GI50 [8] [µM] | GI50 [10] [µM] | GI50 [11]
1 | O=C(O)Cc1ccc(Oc2nc3ccccc3nc2C(=O)O)cc1 | > 100 µM | > 100 µM | > 100 µM | > 100 µM | > 100 µM | > 100 | > 100 µM | > 100 | > 100 µM | > 100 µM | > 100 µM | > 100 | > 100 µM |  |  |  |  |  |  | 
2 | COc1cc(NC(C)=O)ccc1C(=O)NN1C(=O)C(Cl)C1c1ccco1 (configuration not stated) | > 100 µM | > 100 µM | > 100 µM | > 100 µM | > 100 µM | > 100 | > 100 µM | > 100 | > 100 µM | > 100 µM | > 100 µM | > 100 | > 100 µM |  |  |  |  |  |  | 
3 | COc1ccc2c(c1)/C(=C\c1c(C)nc3sc(C)cn13)C(=O)N2 | > 100 µM | 25 µM | 20.5 µM | > 100 µM | > 100 µM | 0.458 | > 87.6 µM | > 42.6 | 3.93 µM | > 100 µM | > 100 µM | > 75.6 | > 100 µM |  |  |  |  |  |  | 
4 | CC(C)(C)c1cc2c(O)c(c1)Cc1cc(C(C#N)(Cc3ccc4ccccc4c3)Cc3ccc4ccccc4c3)cc(c1O)Cc1cc(C(C)(C)C)cc(c1O)Cc1cc(C(C#N)(Cc3ccc4ccccc4c3)Cc3ccc4ccccc4c3)cc(c1O)C2 | > 100 µM | > 100 µM | > 100 µM | > 100 µM | > 100 µM | > 100 | > 100 µM | > 100 | > 100 µM | > 100 µM | > 100 µM | > 100 | > 100 µM |  |  |  |  |  |  | 
5 | N#CC(=C1CCCCC1)c1nc2ccccc2o1 | > 100 µM | > 100 µM | > 100 µM | > 100 µM | > 100 µM | > 100 | > 100 µM | > 100 | > 100 µM | > 100 µM | > 100 µM | > 100 | > 100 µM |  |  |  |  |  |  | 
6 | Cc1cc(N=Nc2c(O)ccc3ccccc23)ccc1N=Nc1cccc([N+](C)(C)C)c1 | > 52.2 µM | 75.5 µM | > 22.2 µM | > 90.7 µM | > 53.1 µM | > 74.5 | 30.2 µM | > 100 | 41 µM | > 80 µM | 26 µM | > 100 | 29.7 µM |  |  |  |  |  |  | 
7 | Cc1cccc(CC(Cc2c(C)cccc2C(=O)O)C(=O)O)c1 (configuration not stated) | > 100 µM | > 100 µM | > 100 µM | > 100 µM | > 100 µM | > 100 | > 100 µM | > 100 | > 100 µM | > 100 µM | > 100 µM | > 100 | > 100 µM |  |  |  |  |  |  | 
8 | CCN(CC)CCNC(=O)c1ccc(I)cc1 | > 100 µM | > 100 µM | > 100 µM | > 100 µM | > 100 µM | > 100 | > 100 µM | > 100 | > 100 µM | > 100 µM | > 100 µM | > 100 | > 100 µM |  |  |  |  |  |  | 
9 | O=C(Nc1c(C(F)(F)F)cc(-c2ccccc2)[nH]c1=O)N1CCOCC1 | > 100 µM | > 100 µM | > 100 µM | > 100 µM | > 100 µM | > 100 | > 100 µM | > 100 | > 100 µM | > 100 µM | > 100 µM | > 100 | > 100 µM |  |  |  |  |  |  | 
10 | Cc1ccc2c(n1)C(=O)C=CC2=O | 41.2 µM | 4.12 µM | 29.3 µM | 18 µM | 53.8 µM | 33 | 42.8 µM | 48.6 | 8.54 µM | 29.8 µM | 34 µM | > 100 | 10.4 µM |  |  |  |  |  |  | 
11 | OC[C@]1(n2nc3ccccc3n2)OC[C@@H]1c1ccccc1 | > 100 µM | > 100 µM | > 100 µM | > 100 µM | > 100 µM | > 100 | > 100 µM | > 100 | 71.2 µM | > 100 µM | > 100 µM | > 100 | > 100 µM |  |  |  |  |  |  | 
12 | O=C(NNC(c1ccccc1)C(F)(F)F)c1ccncc1 (configuration not stated) | > 100 µM | > 100 µM | > 100 µM | > 100 µM | > 100 µM | > 100 | > 100 µM | > 100 |  | > 100 µM | > 100 µM | > 100 |  |  |  |  |  |  |  | 
13 | O=C1O[C@H]2[C@H](O)[C@@H](OC(=O)c3cc(O)c(O)c4c3[C@@H]3C1=CC(=O)C(O)(O)C3(O)O4)[C@H](OC(=O)c1cc(O)c(O)c(O)c1)O[C@@H]2CO (some centres not stated) | > 100 µM | > 100 µM | > 100 µM | > 100 µM | > 100 µM | > 100 | > 100 µM | > 100 | > 100 µM | > 100 µM | > 100 µM | > 100 | > 100 µM |  |  |  |  |  |  | 
14 | COC1C(O)C(C)OC(OC2C(Oc3cccc4c(O)c5c(=O)oc6ccc(C)c7c(=O)oc(c34)c5c67)OC(C)C(O)C2O)C1O (configuration not stated) | 53 µM and 40.4 µM | 3.4 µM and 5.71 µM | > 69.9 µM and 12.9 µM | 19.3 µM and 8.81 µM | 21.6 µM and 6.89 µM | 8.29 | 5.15 µM and 4.17 µM | 117 | 10.7 µM and 8.63 µM | 7.74 µM and 20.9 µM | 26.6 µM and 14.4 µM | 6.47 | 36.5 µM and 18.9 µM | 5.48 | 3.08 | 1.61 | 1.66 | 26.1 | 1.41 | 0.632 µM and 1.21 µM
15 | NC(=O)NC(=O)c1cccc(CNc2ccc(C(=O)N[C@@H](CCC(=O)O)C(=O)O)cc2)n1 | > 100 µM | > 100 µM | > 100 µM | > 100 µM | > 100 µM | > 100 | > 100 µM | > 100 | > 100 µM | > 100 µM |  | > 100 | > 100 µM |  |  |  |  |  |  | 
16 | O=C(Nc1cc2c(=O)oc3ccccc3c2oc1=O)c1cccnc1 | > 100 µM | > 100 µM | > 100 µM | > 100 µM | > 100 µM | > 100 | > 100 µM | > 100 | > 100 µM | > 100 µM | > 100 µM | > 100 | > 100 µM |  |  |  |  |  |  | 

From PubChem BioAssay (NCI)
